ChEMBL document CHEMBL1158917, “Elabunin, a New Cytotoxic Triterpene from an East African Medicinal Plant, Elaeodendron buchananii” (1990)
Values after ≈ are worked out from the molar mass of the structure shown.

System: L1210
Experiment: Cytotoxicity against mouse L1210 cells
Format: functional
Conditions: read-out: ED50 (the source's name)

Work on `C=C(CCC=C(C)C)[C@H]1[C@H](O)C[C@]2(C)[C@@H]1CC[C@@H]1[C@@]3(C)CCC(=O)C(C)(C)[C@@H]3CC[C@]12C` [ELABUNIN] yielded an EC50 of 1 µg/mL (≈ 2.27 µM).
